This is an account of results in ChEMBL document CHEMBL3425505, “Selected hybrid natural products as tubulin modulators” (Eur J Med Chem, 2015).

≈ marks a conversion by molar mass, not a printed value.

The nature of data set [1]: Cytotoxicity against human H460 cells. The settings on record: NCI-H460. The format is functional, cell-based.
The test system of data set [2] is MCF7. Nature of the data set: Cytotoxicity against human MCF7 cells. The class given is functional, cell-based.
Data set [3] relates to A2780. Nature of the data set: Cytotoxicity against human A2780 cells. The format is functional, cell-based.
Data set [4] has as its system B16. Put plainly: Cytotoxicity against mouse B16 cells. The format is functional, cell-based.
Data set [5] has as its system CCRF-CEM. Nature of the data set: Growth inhibition of human CCRF-CEM cells. The class given is functional.
Data set [6] deals with SR. Put plainly: Growth inhibition of human SR cells. The format is functional.
Data set [7] is filed under the species Homo sapiens. Put plainly: Toxicity in metastatic breast cancer patient assessed as incidence of neuropathy. The format is organism-based. The settings on record: in vivo.
For data set [8], the species on record is Homo sapiens. Nature of the data set: Toxicity in metastatic breast cancer patient assessed as incidence of peripheral neuropathy. The format is organism-based. The settings on record: in vivo.
For data set [9], the species on record is Homo sapiens. Nature of the data set: Toxicity in metastatic breast cancer patient assessed as neuropathy rate. Conditions: in vivo. The class given is organism-based.

Turning to `CO[C@H]1/C=C(/C)CCC[C@H](C)[C@H](O)[C@@H](C)C(=O)C(C)(C)[C@@H](O)CC(=O)O[C@@H]1/C(C)=C/c1csc(C)n1`, the figures for the IC50 in [1] and in data set [2] were 4.9 nM and 3.7 nM, respectively. For `C/C(=C\c1csc(C)n1)[C@@H]1C[C@@H]2O[C@@H]2CCC[C@@H]2CCC[C@@H](C(=O)C(C)(C)[C@@H](O)CC(=O)O1)[C@H]2O`, the EC50 in data set [3] was 8500 nM. In turn, `C/C(=C\c1csc(C)n1)[C@@H]1C[C@@H]2O[C@]2(C)CCC[C@@H]2CCC[C@@H](C(=O)C(C)(C)[C@@H](O)CC(=O)O1)[C@H]2O` registered an EC50 in [3] of 8500 nM. In other words, the single-digit micromolar range. The compound `C=C1C[C@@H]2CC[C@@]34O[C@@H]5[C@@H]6O[C@](O)([C@H](O3)[C@@H]6O[C@H]3CC[C@H](CC(=O)O[C@@H]6[C@@H](C)[C@@H]7O[C@@H]8C[C@]9(C[C@@H]%10O[C@]%11(C[C@H](C)[C@@H]%12O[C@H](CC(=O)O)[C@H](O)C[C@@H]%12O%11)C[C@H](C)[C@@H]%10O9)O[C@@H]8C[C@@H]7O[C@H]6C[C@H]6O[C@@H](CC[C@@H]1O2)C[C@@H](C)C6=C)O[C@H]53)[C@H]4O` had an IC50 in data set [4] of 5 ng/mL (≈ 4.44 nM). With `CC1=C(c2ccc(C)cn2)CC2/C=C(/C)CCC[C@H](C)[C@H](O)[C@@H](C)C(=O)C(C)(C)[C@@H](O)CC(=O)O[C@H]12` (single isomer, unassigned), the GI50 in data set [5] was 2.7 nM; in data set [6] it was 2.9 nM. As for `C=C1C[C@@H]2CC[C@@]34C[C@H]5O[C@H]6[C@@H](O3)[C@H]3O[C@H](CC[C@@H]3O[C@H]6[C@H]5O4)CC(=O)C[C@@H]3[C@@H](OC)[C@@H](C[C@H](O)CN)O[C@H]3C[C@H]3O[C@@H](CC[C@@H]1O2)C[C@@H](C)C3=C` [ERIBULIN], the figures for the Activity in [7], in data set [8] and in data set [9] were 33.3%, 31.4% and 35%, respectively. With `C/C(=C\c1csc(C)n1)[C@@H]1C[C@@H]2O[C@]2(C)CCC[C@H](C)[C@H](O)[C@@H](C)C(=O)C(C)(C)[C@@H](O)CC(=O)N1` [IXABEPILONE], the figures for the Activity in [7], in data set [8] and in [9] were 48%, 44% and 63%, respectively.

As a reminder, the IC50 is the point on the concentration scale where inhibition reaches its midpoint. A lower IC50 goes with greater potency in that assay. A word on the EC50: it is the concentration needed to bring the measured effect to its halfway point. A lower EC50 goes with a more potent agent. Usually GI50 stands for the concentration giving 50% growth inhibition.
